Data as given in US20260053765A1, “COMPOSITIONS AND METHODS FOR THE IMPROVEMENT OF MEMORY” (THE CHILDREN'S HOSPITAL OF PHILADELPHIA, priority 2016, published 2026).

Experiments:
[1] = test system: fluid percussion injury mice; test: Conditioned fear response (CFR) after fluid percussion injury, GTA by oral gavage; assay type: in vivo, mouse; settings: 5 mg/kg GTA oral gavage for 5 days, CFR on day 7
Procedure: A fluid percussion injury assay was performed. Briefly, a craniotomy was performed on anesthetized mice using a 3 mm trephine and a Luer-Hoc needle hub attached to the skull and capped. The following day, a fluid percussion injury device was employed to deliver a pulse of saline through the hub at a pressure between 1.4-2.14 atm, producing a mild to moderate percussion injury. Sham animals received all anesthesia and surgical procedures except for the fluid pulse.
Mice were allowed to recover for one day. Mice were then treated with 5 mg/kg of glyceryl triacetate (GTA) via oral gavage for 5 days. The conditioned fear response (CFR) assay was performed on day 7.

[2] = within one hour of administration; cited from earlier work

In the case of `CC(=O)OCC(COC(C)=O)OC(C)=O` [GTA, glyceryl triacetate], the “conditioned fear response (freezing)” value [1] is given as “showed a similar fear response to sham animals and a statistically superior (P<0.05) response to those mice receiving the brain injury without treatment” and the “increase of acetate levels in the brain” value [2] is given as “over 15 fold”.
